From PMC9747717, “A novel small molecule inhibitor of human Drp1” (Scientific Reports, 2022) come the findings set out here.

In general, Kd refers to the equilibrium constant for the complex coming apart. Low values mean higher affinity, high ones lower affinity.

Assay [1] relates to human iPSC-derived cardiomyocytes. In words: Doxorubicin-induced cardiomyocyte injury, LDH release. Particulars: DRP1i27 50 µM in combination with doxorubicin 5 µM, 2 days. It is filed as cell-based. The method, then: Cardiomyocytes were derived from human induced pluripotent stem cells (iPSCs, CERA007c6 cell line) as previously described with modifications[26],[27]. Briefly, human iPSCs were seeded onto Matrigel (Corning) coated plates at a density of 1.25 × 10^5 cells/cm^2 in TeSR-E8 medium supplemented with 10 μM Y−27632 (Abcam). After 48 h (cells ~ 90% confluent) (day 0), medium was replaced with RPMI-1640 basal medium (Thermo Fisher Scientific) containing B-27 without insulin supplement (Thermo Fisher Scientific), growth factor reduced Matrigel (1:60 dilution) and 10 μM CHIR99021 (Cayman Chemical). At day 1, medium was replaced with RPMI 1640 basal medium containing B-27 without insulin supplement. […]
Enriched cardiomyocytes were replated onto Matrigel-coated 48-well plates at a cell density of 5 × 10^4 cells/cm^2 for 2 days. […] LDH levels in the conditioned media were assessed using a colorimetric CyQUANT LDH Cytotoxicity Assay Kit (Thermo Fisher Scientific) according to manufacturer’s protocol. […] Following the incubation at room temperature for 30 min in the dark, 50 μL of Stop Solution was added and absorbance was measured at 490 nm and 680 nm on a microplate spectrophotometer (Bio-Rad). All readings were then corrected for the background signal from the culture media and expressed as fold change.
For orientation: LDH leaks from cells whose membrane has failed.

The target of another assay is T1, human Drp1 isoform 3 (Homo sapiens, UniProt O00429).
T1 construct: His tag; made in house; host or cells: E. coli Rosetta (DE3), pET21b vector
In words: Surface plasmon resonance (SPR) binding. The note with it: human Drp1 isoform 3, 25 °C, 2% DMSO. The method, then:
The recombinant human Drp1 protein (His-tagged human Drp1 isoform 3, kindly provided by Professor Michael Ryan, Monash University, Australia) was generated as described previously. Briefly, cDNA for human Drp1 (isoform 3) was cloned into pET21b vector and transformed in Rosetta (DE3) competent cells (Novagen, MA, Merck Millipore). Transformed cells were propagated in Luria–Bertani broth and protein expression was initiated by the addition of 0.5 mM isopropyl β-D-1-thiogalactopyranoside. […]
All SPR experiments were performed on a Biacore T200 instrument (GE Healthcare Life Sciences, Uppsala, Sweden) at 25 °C in the presence of HEPES buffered saline containing 20 mM phosphate (pH 7.5), 137 mM NaCl, 2.7 mM KCl and 0.05% Tween-20 (HBS + P). […] Sensor surface was activated with 1:1 mixture of 0.4 M EDC and 0.1 M NHS for 7 min, followed by incremental injections of the protein to reach ~ 8000 RU (flow rate 10 μL/minute) for a calculated maximum analyte binding capacity (Rmax) of 30–50 RU. […]
Compounds were dissolved in 100% dimethyl sulfoxide (DMSO) and then added to HBS + P at a final DMSO concentration of 2%. […] SPR results were analysed using the Biacore T200 Evaluation Software v.1.
For orientation: Surface plasmon resonance follows binding to a sensor surface in real time, without labels.

In another assay the test system is Drp1 KO MEFs. Briefly: Mitochondrial morphology analysis in Drp1 KO MEF. It is filed as cell-based, mouse. Particulars: Drp1 KO MEFs, 5, 10 or 50 µM. The method, then: Human foreskin fibroblasts and Drp1 wildtype and KO MEF (kindly provided by Professor Hiromi Sesaki, Johns Hopkins University, USA)[28],[29] were transduced with pAS2.EYFP.puro lentiviruses (RNAiCore, Academia Sinica, Taiwan) carrying the mitochondrial-targeted EGFP sequence as described in Kalkhoran et al.[30]. Cells were then treated with DRP1i27 (5, 10 or 50 µM) or 0.1% DMSO vehicle control for 24 h.
Mitochondrial morphology in HL-1 cells were visualised by immunostaining of mitochondrial Hsp60 antibody (Abcam, MA, USA). Images were acquired using Olympus BX60 fluorescence microscope at 600 × magnification and analysed using Fiji imaging software (ImageJ v1.53c). Cells were categorised into predominantly (> 50%) having fused or fragmented mitochondria. At least 100 cells were analysed for each treatment group.

The structures appear in SMILES notation. Several values for one entry are separate records, joined by “and”; a condition that tells them apart may be missing. Equal entries are not always repeated.

T1 sequence (O00429 1-699 isoform O00429-4): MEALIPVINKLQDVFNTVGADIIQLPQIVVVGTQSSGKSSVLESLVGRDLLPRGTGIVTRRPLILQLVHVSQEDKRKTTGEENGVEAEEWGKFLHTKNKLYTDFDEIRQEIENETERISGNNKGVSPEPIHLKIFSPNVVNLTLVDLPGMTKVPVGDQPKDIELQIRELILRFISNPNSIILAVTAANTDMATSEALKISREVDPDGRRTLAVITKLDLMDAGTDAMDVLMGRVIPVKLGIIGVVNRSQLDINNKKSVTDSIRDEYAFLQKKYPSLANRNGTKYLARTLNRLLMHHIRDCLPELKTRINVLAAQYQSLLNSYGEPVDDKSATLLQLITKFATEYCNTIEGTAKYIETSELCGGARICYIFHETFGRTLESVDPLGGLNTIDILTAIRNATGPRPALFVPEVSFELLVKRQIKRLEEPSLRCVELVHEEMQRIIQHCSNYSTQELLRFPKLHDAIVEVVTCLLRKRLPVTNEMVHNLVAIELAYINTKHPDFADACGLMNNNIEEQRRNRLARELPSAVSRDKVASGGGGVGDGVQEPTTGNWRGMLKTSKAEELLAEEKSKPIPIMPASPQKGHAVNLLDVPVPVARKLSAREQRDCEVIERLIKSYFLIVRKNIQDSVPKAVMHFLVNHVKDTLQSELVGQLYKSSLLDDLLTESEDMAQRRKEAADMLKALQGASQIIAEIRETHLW

For the molecule `Cc1nc[nH]c1CN1C[C@@H]2CC[C@H](C1)N(Cc1ccc(-c3cc[nH]n3)o1)C2` [DRP1i27], the LDH release in assay [1] stood at 3.13 ± 0.16 fold change. Also, the dissociation constant (Kd) at human Drp1 isoform 3 was 286 µM and 287 µM. The “cellular networks of mitochondria” value in the assay with Drp1 KO MEFs was “no significant effect”.
